{
  "source": "paper PMC8148468",
  "about": "“Shikimic acid protects skin cells from UV-induced senescence through activation of the NAD+-dependent deacetylase SIRT1” (Aging (Albany NY), 2021)",
  "format_in_all_cases": "cell-based, human",
  "key": {"[1]": {"test_system": "H3K9ac (the target of SIRT1, SIRT2 and SIRT6)", "test": "Sirtuin activity assay in HDF: H3K9ac levels (Western blot)", "conditions": "UV conditions, -/+25mM SA -/+1μM EX-527"}, "HDF cells": {"test_system": "HDF cells", "test": "SRB and Trypan blue cell viability assays", "conditions": "Shikimic acid 5, 10, 25 and 50 mM, 24h", "method": "Student T-test, *p<0.05, **p<0.01, ***p<0.001.\nThe protocol for senescence induction using UVB irradiation is described in the Supplementary Methods. SA-β-Gal staining, WST-1, sulforhodamine B (SRB) and trypan blue assays were performed as previously described. For the siRNA experiments, the protocol for senescence induction using UVB irradiation was the same as in the Supplementary Methods. Specific siRNA (Horizon discovery, UK) for SIRT1, SIRT2, SIRT6, BiP or scramble siRNA were incubated for 6 hours before each irradiation step."}, "spliced-XBP1": {"test_system": "spliced-XBP1", "test": "Spliced XBP1 mRNA (qPCR)", "conditions": "UVB-irradiated cells, SA treatment", "method": "Figure 5 (A) Western-blot of BiP proteins levels in UVB or non UVB irradiated cells treated with SA at the indicated concentrations in presence or absence of EX-527 1 μM. (B) Quantification of n=3 experiments as (A). The levels of BiP are normalized by the loading control (histone H3) and represented related to the conditions in UVB irradiated cells in absence of SA and EX-527. Student T-test, *p<0.05. (C) Percentage of SA-β-Gal in assays performed as in Figure 3C. (D) Levels of spliced and unspliced XBP1 mRNA monitored by qPCR analysis in cells treated in the indicated conditions in presence or absence of SA and/or EX-527. The levels were normalized by internal controls and represented in each case related to the conditions in UVB irradiated cells in absence of SA and EX-527. […]\nRNA was extracted from cell pellets using the Total RNA Purification Kit (Norgen, Canada), according to the manufacturer’s protocol. Extracted RNA was quantified using a NanoDrop® ND-1000 UV-Vis Spectrophotometer (Thermo Fisher Scientific, USA) and 300 ng of RNA were retrotranscribed to cDNA using the PrimeScriptTM RT reagent kit (Takara Bio Inc., Japan). cDNA was diluted 1/10 in ultrapure water and qPCR mix was prepared by adding cDNA (12 ng), SYBR green supermix (Bio Rad, USA), forward and reverse primers (0.2μM). […] The results were analyzed with Bio-Rad CFX Manager software. […]"}, "[2]": {"test_system": "HAS2 (hyaluronic acid synthase 2)", "test": "UVB-induced senescence assay: HAS2 gene expression (qPCR)", "conditions": "UVB-irradiated HDF", "method": "In the second approach, we established a method for inducing senescence in these cells with 2 cycles of UVB irradiation 72h apart (Figure 2A). The use of UVA to induce senescence was discarded due to its considerably longer time requirement, being unsuitable to screen 30 compounds within a reasonable period. Cells were treated with these compounds throughout the duration of the assay and cellular senescence was monitored with two markers: accumulation of SA-β-galactosidase (SA-β-Gal) activity, and the decrease in expression of HAS2 (hyaluronic acid synthase 2), a previously reported marker of skin senescence.\nFigure 2 (A) Schematic representation of the protocol for senescence induction using UVB irradiation. Cells were treated -/+ the compounds from day 1 to 7 after seeding, irradiated with UVB on days 2 and 5 and harvested for analysis on day 7. […] (C) Phase-contrast (left column) and bright field (right column) microscope images of SA-β-Gal staining showing non-irradiated cells, UVB-irradiated cells non-treated and treated with Gallic acid or Shikimic acid at the indicated concentrations. (D) Percentage of SA-β-Gal positive cells and (E) Relative HAS2 mRNA levels in non-irradiated cells, UVB-irradiated cells and UVB-irradiated cells treated with Gallic acid or Shikimic acid at the indicated concentrations. Student T-test, *p<0.05, **p<0.01, ***p<0.001.\nRNA was extracted from cell pellets using the Total RNA Purification Kit (Norgen, Canada), according to the manufacturer’s protocol. Extracted RNA was quantified using a NanoDrop® ND-1000 UV-Vis Spectrophotometer (Thermo Fisher Scientific, USA) and 300 ng of RNA were retrotranscribed to cDNA using the PrimeScriptTM RT reagent kit (Takara Bio Inc., Japan). cDNA was diluted 1/10 in ultrapure water and qPCR mix was prepared by adding cDNA (12 ng), SYBR green supermix (Bio Rad, USA), forward and reverse primers (0.2μM). The primers and their respective sequences are listed in Supplementary Table 1. qPCR protocol included one step at 95° C for 30 s, 40 cycles at 95° C for 10s, and 60° C for 1min. The results were analyzed with Bio-Rad CFX Manager software. BACT was used as a housekeeping gene to normalize gene expression.\nSenescence induction by UVB irradiation For the non-irradiation control conditions, HDF were […]\nAfter 24h, culture medium was removed and well plates. After 24h, culture medium was removed replaced by fresh cell culture medium containing the and replaced with fresh cell culture medium containing compounds at different concentrations. After 24h, the compounds at different concentrations. […]\ncell culture medium was removed, and cells were cells/plate in fresh cell culture medium containing the irradiated at 25 mJ/cm2 of UVB light (312 nm) in a Bio- compound in 6-well plates. After 3 days, cells were […]\namount of PBS. PBS was then removed and fresh cell fresh cell culture medium containing the compound in culture medium with the compound was added to each 6-well plates. After 2 days, cells were processed well. After 3 days, cells were irradiated again under the according to the qPCR, β-Gal staining, apoptosis, cell same conditions. After 2 days, cells were processed cycle or immunofluorescence protocols. according to the qPCR, β-Gal staining, apoptosis, cell cycle or immunofluorescence protocols."}},
  "data": [
    {"smiles": "O=C(O)C1=C[C@@H](O)[C@@H](O)[C@H](O)C1", "note": "[Shikimic acid]", "values": [
      {"measurement": "H3K9ac/H3 levels under UV-induced senescence", "setting": "[1]", "value": "induced increased deacetylation of H3K9ac and H4K16ac"},
      {"measurement": "cytotoxicity (SRB/trypan blue assay)", "setting": "HDF cells", "value": "no differences in cytotoxicity"},
      {"measurement": "spliced XBP1 mRNA levels", "setting": "spliced-XBP1", "value": "induced a decrease in spliced-XBP1"},
      {"measurement": "HAS2 expression", "setting": "[2]", "value": "increase in HAS2 expression"}
    ]}
  ]
}
